Values quoted from earlier work in patent US20240358662A1, “COMPOSITIONS, METHODS AND SYSTEMS FOR AEROSOL DRUG DELIVERY” (ASTRAZENECA PHARMACEUTICALS LP, priority 2021, published 2024).

Details: for Latent Heat @ Boiling Point: at boiling point

Liquid Density @ 20° C. | Liquid Viscosity @ 20° C. (mPa · S) | Surface Tension @ 20° C. (mN/m) | Vapor Pressure @ 20° C. (kPa) | Latent Heat @ 25° C. | Latent Heat @ Boiling Point | Structure (SMILES)
1.23 g/mL | 0.211 mPa · S | 8.09 mN/m | 570 kPa | 177.7 kJ/kg | 216.7 kJ/kg | FCC(F)(F)F [HFA-134a, 1,1,1,2-tetrafluoroethane]
1.41 g/mL | 0.267 mPa · S | 7.50 mN/m | 390 kPa | 110.97 kJ/kg | 131.4 kJ/kg | FC(C(F)(F)F)C(F)(F)F [HFA-227ea, 1,1,1,2,3,3,3-Heptafluoropropane]
0.91 g/mL | 0.171 mPa · S | 10.4 mN/m | 510 kPa | 279.1 kJ/kg | 318.4 kJ/kg | CC(F)F [HFC-152a, 1,1-Difluoroethane]

Structure (SMILES) | Liquid Density @ 20° C. | Liquid Viscosity @ 20° C. (mPa · S) | Surface Tension @ 20° C. (mN/m) | Vapor Pressure @ 20° C. (kPa) | Latent Heat @ 25° C. | Latent Heat @ Boiling Point
C=C(F)C(F)(F)F [HFO-1234yf, 2,3,3,3-Tetrafluoropropene] | 1.11 g/mL | 0.164 mPa · S | 6.8 mN/m | 592 kPa | 145.4 kJ/kg | 180.5 kJ/kg
FC=CC(F)(F)F [HFO-1234ze, 1,3,3,3-tetrafluoropropene] | 1.18 g/mL | 0.206^3 mPa · S | 8.9 mN/m | 427 kPa | 166.8 kJ/kg | 195.43 kJ/kg
